Publication PMC4022547 (Molecular Brain, 2014)

What was measured:
[1] = target: T1, hα6(R87C) + WT hβ2 + hβ3^V9’S nAChR (Homo sapiens, UniProt P17787+Q15825, R87C); experiment: Oocyte two-electrode voltage clamp; format: cell-based; details: ACh, nicotine or atropine; hβ2 type not specified
T1 construct: Full length capped mRNA (i.e., cRNA) was transcribed from linearized plasmids; expressed in transfected cells; host or cells: Xenopus laevis oocytes injected with cRNA
Experimental: (§1) We planned to introduce identical amounts of cRNA, presumably producing equal amounts of each subunit protein, into oocytes largely due to lack of information about the levels of mRNA for each subunits that compose α6*-nAChRs in neurons or other cells. Concentrations of cRNAs for each nAChR α and β subunits (WT, mutant or variant) were adjusted to 500 ng μL^−1. We provisionally assumed that hα6 or its variants in association with hβ2 or hβ4 subunits would form complexes having 2:3 and/or 3:2 ratios of the indicated subunits and that oocytes also injected with WT or mutant form of β3 subunits (i.e., β3^V9’S) would express nAChR with 2:2:1 ratios of α:β:(β3 or β3^V9’S) subunits. For expression of binary nAChRs (i.e., two subunit containing nAChRs; α + β but not β3) cRNA mixtures were prepared by mixing 1 μL of cRNA for each subunit and an additional μL of RNAse free water (i.e., total volume 3 μL). Similarly for expression of ternary nAChRs [i.e., three subunit containing nAChRs; (α + β) + (β3 or β3^V9’S)] cRNA mixtures were prepared by mixing 1 μL of cRNA for each subunit. Several preparations of each mixture were prepared and stored at −80°C until further use. Injection of 138 nL of cRNA, out of 3 μL cRNA mixtures, into each oocyte would deliver ~23 ng of cRNA for each subunit whether binary or ternary nAChRs are expressed.
(§2) Two to 5 days after injection, oocytes were placed in a small-volume chamber and continuously perfused with OR2. The chamber was grounded through an agarose bridge. The oocytes were voltage-clamped at −70 mV (unless otherwise noted) to measure agonist or antagonist induced currents using Axoclamp 900A and pClamp 10.2 software (Molecular Devices, Sunnyvale, CA). The current signal was low-pass filtered at 10 Hz with the built-in low-pass Bessel filter in the Axoclamp 900A and digitized at 20 Hz with Axon Digidata1440A and pClamp10. […] Drugs (agonists and antagonists) were prepared daily in OR2. Drug was applied using a Valvelink 8.2 perfusion system (Automate scientific, Berkeley, CA). […] Then for the purpose of comparison electrophysiological recordings were performed in a given day in a given batch of oocytes following the same order of injections. […] All hβ4*-nAChR recordings were done in similar conditions to facilitate comparisons between hα6hβ4- and hα6hβ4hβ3-nAChRs. All electrophysiological measurements were conducted or checked in at least two batches of oocytes.
(§3) Raw data was collected and processed in part using pClamp 10.2 (Molecular Devices, Sunnyvale, CA), Origin 7.5 (OriginLab Corporation, Northampton, MA) and a spreadsheet (Excel; Microsoft, Bellevue, WA). Peak current amplitudes (Imax) are reported as mean ± SEM (for results from at least three oocytes, i.e., n = 3).

[2] = target: hα6(D199Y) + hβ4 + hβ3 nAChR (Homo sapiens, UniProt P30926+Q15825, D199Y); experiment: Oocyte two-electrode voltage clamp; format: cell-based
Sequence of hα6(D199Y) + hβ4 + hβ3 nAChR (Q15825 26-494 D199Y): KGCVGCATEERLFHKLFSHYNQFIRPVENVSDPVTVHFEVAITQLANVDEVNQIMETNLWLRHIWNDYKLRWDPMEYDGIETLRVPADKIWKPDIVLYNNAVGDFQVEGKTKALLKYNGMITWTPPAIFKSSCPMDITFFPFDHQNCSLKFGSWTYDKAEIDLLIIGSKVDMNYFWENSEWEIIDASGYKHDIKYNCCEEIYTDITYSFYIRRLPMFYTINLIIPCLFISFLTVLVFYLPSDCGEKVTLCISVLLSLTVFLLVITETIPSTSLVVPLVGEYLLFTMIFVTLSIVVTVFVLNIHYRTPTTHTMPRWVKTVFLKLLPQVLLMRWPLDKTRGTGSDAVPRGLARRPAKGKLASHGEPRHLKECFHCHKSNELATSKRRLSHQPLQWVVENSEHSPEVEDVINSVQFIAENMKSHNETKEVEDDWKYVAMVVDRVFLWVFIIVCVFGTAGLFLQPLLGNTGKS
Sequence of hα6(D199Y) + hβ4 + hβ3 nAChR (P30926 22-498): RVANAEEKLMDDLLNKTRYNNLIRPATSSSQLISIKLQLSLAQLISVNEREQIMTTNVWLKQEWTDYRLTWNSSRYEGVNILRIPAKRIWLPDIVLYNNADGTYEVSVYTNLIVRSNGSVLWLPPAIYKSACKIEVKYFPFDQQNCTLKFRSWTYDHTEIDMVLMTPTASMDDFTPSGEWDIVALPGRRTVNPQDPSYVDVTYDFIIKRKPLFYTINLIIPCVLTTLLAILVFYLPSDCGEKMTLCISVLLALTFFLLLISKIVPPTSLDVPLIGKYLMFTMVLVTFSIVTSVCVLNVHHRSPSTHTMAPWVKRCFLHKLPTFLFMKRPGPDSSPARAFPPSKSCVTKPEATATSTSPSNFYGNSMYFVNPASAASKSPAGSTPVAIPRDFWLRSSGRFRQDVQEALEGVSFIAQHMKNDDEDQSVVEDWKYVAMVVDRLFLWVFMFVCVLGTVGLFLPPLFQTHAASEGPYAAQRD
Sequence of hα6(D199Y) + hβ4 + hβ3 nAChR (Q05901 25-458 partner limits assumed): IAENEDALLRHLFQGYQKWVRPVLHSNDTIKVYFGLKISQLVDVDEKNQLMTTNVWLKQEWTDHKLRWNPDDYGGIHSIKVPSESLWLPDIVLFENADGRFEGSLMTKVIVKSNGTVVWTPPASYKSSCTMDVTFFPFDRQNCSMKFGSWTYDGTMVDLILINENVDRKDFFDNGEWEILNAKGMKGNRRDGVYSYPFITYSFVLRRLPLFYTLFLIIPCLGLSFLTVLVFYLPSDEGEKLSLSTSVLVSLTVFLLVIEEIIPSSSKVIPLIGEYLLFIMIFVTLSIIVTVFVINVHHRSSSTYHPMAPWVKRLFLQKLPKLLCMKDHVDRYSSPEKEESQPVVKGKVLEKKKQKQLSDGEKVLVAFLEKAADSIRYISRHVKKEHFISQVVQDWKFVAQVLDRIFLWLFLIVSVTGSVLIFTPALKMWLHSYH
Experimental: as §1, §2, §3

[3] = target: T2, hα6(R96H) + hβ4 nAChR (Homo sapiens, UniProt P30926+Q15825, R96H); experiment: Oocyte two-electrode voltage clamp; format: cell-based; details: 1000 μM ACh; 1 μM atropine co-applied
T2 construct: Full length capped mRNA (i.e., cRNA) was transcribed from linearized plasmids; expressed in transfected cells; host or cells: Xenopus laevis oocytes injected with cRNA
T2 sequence (Q15825 26-494 R96H): as the sequence (Q15825 26-494 D199Y) above, with R71H, Y174D counted along it
T2 sequence (P30926 22-498, stated change not applied): as the sequence (P30926 22-498) above
Experimental: as §1, §2, §3

[4] = target: hα6^S156Rhβ4hβ3^V9’S-nAChR (Homo sapiens, UniProt P30926+Q15825, S156R); details: nicotine (100 μM), ACh (100 μM) or atropine (1000 μM)
Sequence of hα6^S156Rhβ4hβ3^V9’S-nAChR (Q15825 26-494 S156R): as the sequence (Q15825 26-494 D199Y) above, with S131R, Y174D counted along it
Sequence of hα6^S156Rhβ4hβ3^V9’S-nAChR (P30926 22-498): as the sequence (P30926 22-498) above
Sequence of hα6^S156Rhβ4hβ3^V9’S-nAChR (Q05901 25-458 V273S partner limits assumed): as the sequence (Q05901 25-458 partner limits assumed) above, with V249S counted along it
Experimental: as §1, §2

[5] = target: hα6hβ4hβ3^V9’S-nAChR (Homo sapiens, UniProt P30926+Q05901+Q15825, V273S); details: nicotine (100 μM), ACh (100 μM) or atropine (1000 μM); spontaneously opening channels
Sequence of hα6hβ4hβ3^V9’S-nAChR (Q15825 26-494): as the sequence (Q15825 26-494 D199Y) above, with Y174D counted along it
Sequence of hα6hβ4hβ3^V9’S-nAChR (P30926 22-498): as the sequence (P30926 22-498) above
Sequence of hα6hβ4hβ3^V9’S-nAChR (Q05901 22-458 V273S): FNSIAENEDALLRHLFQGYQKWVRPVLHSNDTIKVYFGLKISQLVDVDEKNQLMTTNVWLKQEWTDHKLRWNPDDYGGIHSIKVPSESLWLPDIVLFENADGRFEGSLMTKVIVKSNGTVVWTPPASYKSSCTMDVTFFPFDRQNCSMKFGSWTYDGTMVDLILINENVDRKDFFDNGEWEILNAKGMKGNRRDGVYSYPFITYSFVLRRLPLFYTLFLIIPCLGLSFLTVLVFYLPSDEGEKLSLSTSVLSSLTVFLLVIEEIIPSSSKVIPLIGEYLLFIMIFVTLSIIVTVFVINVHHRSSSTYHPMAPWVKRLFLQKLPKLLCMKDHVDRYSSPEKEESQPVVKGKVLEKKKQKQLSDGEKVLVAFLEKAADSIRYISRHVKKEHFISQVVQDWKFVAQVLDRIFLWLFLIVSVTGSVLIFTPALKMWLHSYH
Experimental: as §1, §2

[6] = target: hα6^N171Khβ4β3^V9’S-nAChR (Homo sapiens, UniProt P30926+Q15825, N171K); details: nicotine (100 μM), ACh (100 μM) or atropine (1000 μM)
Sequence of hα6^N171Khβ4β3^V9’S-nAChR (Q15825 26-494 N171K): as the sequence (Q15825 26-494 D199Y) above, with N146K, Y174D counted along it
Sequence of hα6^N171Khβ4β3^V9’S-nAChR (P30926 22-498): as the sequence (P30926 22-498) above
Sequence of hα6^N171Khβ4β3^V9’S-nAChR (Q05901 25-458 V273S partner limits assumed): as the sequence (Q05901 25-458 partner limits assumed) above, with V249S counted along it
Experimental: as §1, §2

[7] = target: hα6^D57Nhβ4hβ3^V9’S-nAChR (Homo sapiens, UniProt P30926+Q15825, D57N); details: nicotine (100 μM), ACh (100 μM) or atropine (1000 μM)
Sequence of hα6^D57Nhβ4hβ3^V9’S-nAChR (Q15825 26-494 D57N): as the sequence (Q15825 26-494 D199Y) above, with D32N, Y174D counted along it
Sequence of hα6^D57Nhβ4hβ3^V9’S-nAChR (P30926 22-498): as the sequence (P30926 22-498) above
Sequence of hα6^D57Nhβ4hβ3^V9’S-nAChR (Q05901 25-458 V273S partner limits assumed): as the sequence (Q05901 25-458 partner limits assumed) above, with V249S counted along it
Experimental: as §1, §2

[8] = target: hα6^R87C + hβ4 + hβ3^V9’S nAChR (Homo sapiens, UniProt P30926+Q15825, R87C); details: nicotine (100 μM), ACh (100 μM) or atropine (1000 μM)
Sequence of hα6^R87C + hβ4 + hβ3^V9’S nAChR (Q15825 26-494 R87C): as the sequence (Q15825 26-494 D199Y) above, with R62C, Y174D counted along it
Sequence of hα6^R87C + hβ4 + hβ3^V9’S nAChR (P30926 22-498): as the sequence (P30926 22-498) above
Sequence of hα6^R87C + hβ4 + hβ3^V9’S nAChR (Q05901 25-458 V273S partner limits assumed): as the sequence (Q05901 25-458 partner limits assumed) above, with V249S counted along it
Experimental: as §1, §2

T1 sequence (Q15825 26-494 R87C): as the sequence (Q15825 26-494 D199Y) above, with R62C, Y174D counted along it
T1 sequence (P17787 26-502): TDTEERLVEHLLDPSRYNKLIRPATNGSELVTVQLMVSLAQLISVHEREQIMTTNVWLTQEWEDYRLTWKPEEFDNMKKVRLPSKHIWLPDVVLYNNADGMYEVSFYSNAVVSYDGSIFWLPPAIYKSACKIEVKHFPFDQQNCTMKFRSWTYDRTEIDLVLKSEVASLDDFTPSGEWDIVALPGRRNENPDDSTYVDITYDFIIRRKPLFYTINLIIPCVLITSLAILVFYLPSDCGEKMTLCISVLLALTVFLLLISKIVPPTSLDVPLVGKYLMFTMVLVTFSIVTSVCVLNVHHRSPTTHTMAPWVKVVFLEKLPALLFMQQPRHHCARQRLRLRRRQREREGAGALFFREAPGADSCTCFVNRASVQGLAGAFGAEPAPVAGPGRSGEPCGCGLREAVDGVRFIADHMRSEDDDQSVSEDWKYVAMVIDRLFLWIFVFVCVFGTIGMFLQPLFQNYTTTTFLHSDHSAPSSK
T1 sequence (Q05901 25-458 V273S partner limits assumed): as the sequence (Q05901 25-458 partner limits assumed) above, with V249S counted along it

SMILES: CC(=O)OCC[N+](C)(C)C [ACh, acetylcholine]
- current response [1]: not obtained
- nH ± SE (Hill coefficient) [2]: 1.1 ± 0.07
- Mean Imax ± SE (nA) ([2]; 1000 μM ACh, 1 μM atropine co-applied): 494 ± 51 nA
- Mean Imax ± SE (nA) [3]: 31 ± 4 nA
- current response (direction) [4]: outward reversible currents
- current response (direction) [5]: robust inward current
- current response (direction) [6]: outward reversible currents
- current response (direction) [7]: outward reversible currents
- current response [8]: not obtained
